This note sets out measurements from US10011590B2, “Crystalline forms of vilazodone hydrochloride and vilazodone free base” (DR. REDDY'S LABORATORIES LIMITED, priority 2012, dated 2018).

SMILES strings stand for the structures.

The data set in a line: Effect of variation of water (and solvent) content on stability and PXRD pattern of the solid form. The settings on record: for effect of variation of water content on stability and PXRD pattern: variation of water content within the stated range. The class given is physicochemical.

`Cl.N#Cc1ccc2[nH]cc(CCCCN3CCN(c4ccc5oc(C(N)=O)cc5c4)CC3)c2c1` [2-benzofurancarboxamide, 5-[4-[4-(5-cyano-1H-indol-3-yl)butyl]-1-piperazinyl]-, hydrochloride (1:1)]: the “effect of variation of water content on stability and PXRD pattern” value (shortened to “effect of variation of water content”) was “does not affect the stability and PXRD pattern”.
In the case of `Cl.N#Cc1ccc2[nH]cc(CCCCN3CCN(c4ccc5oc(C(N)=O)cc5c4)CC3)c2c1` [Form B, 2-benzofurancarboxamide, 5-[4-[4-(5-cyano-1H-indol-3-yl)butyl]-1-piperazinyl]-, hydrochloride (1:1)], the “effect of variation of water content” value (listed as crystalline form B of vilazodone hydrochloride) is “may not affect the stability and PXRD pattern”.
For the molecule `Cl.N#Cc1ccc2[nH]cc(CCCCN3CCN(c4ccc5oc(C(N)=O)cc5c4)CC3)c2c1` [Form C, 2-benzofurancarboxamide, 5-[4-[4-(5-cyano-1H-indol-3-yl)butyl]-1-piperazinyl]-, hydrochloride (1:1)], the “effect of variation of water content” value (listed as vilazodone hydrochloride crystalline form C) is “may not affect the stability and PXRD pattern”.
With `Cl.N#Cc1ccc2[nH]cc(CCCCN3CCN(c4ccc5oc(C(N)=O)cc5c4)CC3)c2c1` [Form D, 2-benzofurancarboxamide, 5-[4-[4-(5-cyano-1H-indol-3-yl)butyl]-1-piperazinyl]-, hydrochloride (1:1)], the “effect of variation of water and solvents on stability and PXRD pattern” value (variation of water and solvent content of the mixed solvates) is “may not affect the stability and PXRD pattern”.
On to `N#Cc1ccc2[nH]cc(CCCCN3CCN(c4ccc5oc(C(N)=O)cc5c4)CC3)c2c1` [form I of vilazodone free base, vilazodone free base], for which the “effect of variation of water content” value is “does not affect the stability and PXRD pattern”.
